Test results reported in patent US20240368106A1, “HYDROXY AND ALKOXY COUMARINS AS MODULATORS OF POLRMT” (Pretzel Therapeutics, Inc., priority 2021, published 2024).

What follows are molecules tested against POLRMT (Homo sapiens (Human), UniProt O00411) (assay: homogeneous TR-FRET assay of mitochondrial transcription (inhibition of POLRMT)). Details: 7.5 nM POLRMT, 15 nM TFB2M, 30 nM TFAM, 0.5 nM DNA template, 500 μM NTPs, 37° C., 60 minutes.
Format: biochemical
Procedure: The inhibitory activity of the compounds of the present invention against POLRMT were determined by assays based on Bergbrede, T., et al., “An adaptable high-throughput technology enabling the identification of specific transcription modulators,” SLAC Discov., 22, 378-386 (2017).
The ability of some compounds of the present invention to inhibit POLRMT were determined in a homogeneous TR-FRET Assay using high-throughput screening in a 384-well plate format. This method is used to monitor the activity of mitochondrial transcription through measurement of its product, a 407 bp long RNA transcript. Detection of the product is facilitated by hybridization of two DNA-oligonucleotide probes to specific and adjacent sequences within the RNA product sequence. Upon annealing of the probes, two fluorophores are coupled directly to an acceptor nucleotide probe (ATT0647, 5′), or introduced via a coupled streptavidin with a biotinylated donor nucleotide probe (Europium cryptate) that is brought into sufficient proximity to serve as a fluorescence-donor-acceptor pair. Thus, a FRET signal at 665 nm is generated upon excitation at 340 nm.
Proteins used as transcription factors (POLRMT: NP_005026.3, TFAM: NP_003192.1, TFB2M: NP_071761.1) are diluted from their stocks to working concentrations of 1 μM, 20 μM and 4 μM respectively, in a dilution buffer containing 20 mM Tris-HCl (pH 8.0), 200 mM NaCl, 10% (v/v) glycerol, 1 mM Dithiothreitol (DTT), 0.5 mM EDTA.
DNA template is a pUC18 plasmid with the mitochondrial light strand promotor sequence (1-477) cloned between HindIII and BamHI sites. The DNA template is restriction linearized proximal to the promotor 3′-end (pUC-LSP). The reaction mixture (10 uL) containing 7.5 nM POLRMT, 15 nM of TFB2M, 30 nM of TFAM, 0.5 nM of DNA template and 500 μM nucleotide triphosphate mix (NTPs) in a reaction buffer (containing 10 mM Tris-HCl (pH 7.5), 10 mM MgCl2, 40 mM NaCl, 10 mM DTT, 0.005% (w/v) Tween-20, 160 units/ml Rnase inhibitor and 0.1 mg/mL BSA) are dispensed to compounds in microplates, using a Thermo Multidrop® dispenser, and incubated at 37° C. in a VWR INCU-Line incubator for 60 minutes after mixing. No nucleotide triphosphate mix is added to negative control samples. Microplates with compounds to be tested in the assay are prepared from 10 mM compound stocks in 100% DMSO, equal amounts of DMSO without any compound are added to positive control and negative control samples.
During the incubation, a mix of the detection reagents is prepared in a buffer such that the enzymatic reaction is terminated due to chelating of Mg-ions and increased ionic strength, containing 50 mM Tris-HCl (pH 7.5), 700 mM NaCl, 20 mM EDTA, and 0.010% (w/v) Tween-20. Europium-streptavidin is pre-incubated with a 200-fold molar excess of a random sequence oligonucleotide to block unspecific binding of oligo, for two hours at ambient temperature in the dark. Afterwards, the blocked Europium-streptavidin is kept on ice until use.
At the end of the enzymatic reaction time, 5 μL detection oligo mix in the detection buffer is added, and assay plates are mixed and kept at ambient temperature for one hour, protected from light. The concentration of the Acceptor nucleotide oligo (e.g., ATTO647N-5′-[…]-3′) and Donor nucleotide oligo (e.g., bio-5′-AACACATCTCT(-bio)GCCAAACCCCA-bio-3′) in each assay well is 1 nM, and 3 nM, respectively.
After incubation with oligo mix, 5 μL of pre-blocked Europium-streptavidin reagent is dispensed to each assay well, assay plates are again mixed and kept at ambient temperature for one hour, protected from light.
The generated signal is measured with BMG Pherastar microtiter plate reader with a TRF light unit, using excitation at 340 nm, an integration time of 200 μs, and a delay time of 100 μs, before detection at 620 nm and 665 nm. The ratio of donor- and acceptor-fluorescence is used as a measure of the generated transcript product (i.e. enzymatic activity).

Sequence of POLRMT (O00411 42-1230): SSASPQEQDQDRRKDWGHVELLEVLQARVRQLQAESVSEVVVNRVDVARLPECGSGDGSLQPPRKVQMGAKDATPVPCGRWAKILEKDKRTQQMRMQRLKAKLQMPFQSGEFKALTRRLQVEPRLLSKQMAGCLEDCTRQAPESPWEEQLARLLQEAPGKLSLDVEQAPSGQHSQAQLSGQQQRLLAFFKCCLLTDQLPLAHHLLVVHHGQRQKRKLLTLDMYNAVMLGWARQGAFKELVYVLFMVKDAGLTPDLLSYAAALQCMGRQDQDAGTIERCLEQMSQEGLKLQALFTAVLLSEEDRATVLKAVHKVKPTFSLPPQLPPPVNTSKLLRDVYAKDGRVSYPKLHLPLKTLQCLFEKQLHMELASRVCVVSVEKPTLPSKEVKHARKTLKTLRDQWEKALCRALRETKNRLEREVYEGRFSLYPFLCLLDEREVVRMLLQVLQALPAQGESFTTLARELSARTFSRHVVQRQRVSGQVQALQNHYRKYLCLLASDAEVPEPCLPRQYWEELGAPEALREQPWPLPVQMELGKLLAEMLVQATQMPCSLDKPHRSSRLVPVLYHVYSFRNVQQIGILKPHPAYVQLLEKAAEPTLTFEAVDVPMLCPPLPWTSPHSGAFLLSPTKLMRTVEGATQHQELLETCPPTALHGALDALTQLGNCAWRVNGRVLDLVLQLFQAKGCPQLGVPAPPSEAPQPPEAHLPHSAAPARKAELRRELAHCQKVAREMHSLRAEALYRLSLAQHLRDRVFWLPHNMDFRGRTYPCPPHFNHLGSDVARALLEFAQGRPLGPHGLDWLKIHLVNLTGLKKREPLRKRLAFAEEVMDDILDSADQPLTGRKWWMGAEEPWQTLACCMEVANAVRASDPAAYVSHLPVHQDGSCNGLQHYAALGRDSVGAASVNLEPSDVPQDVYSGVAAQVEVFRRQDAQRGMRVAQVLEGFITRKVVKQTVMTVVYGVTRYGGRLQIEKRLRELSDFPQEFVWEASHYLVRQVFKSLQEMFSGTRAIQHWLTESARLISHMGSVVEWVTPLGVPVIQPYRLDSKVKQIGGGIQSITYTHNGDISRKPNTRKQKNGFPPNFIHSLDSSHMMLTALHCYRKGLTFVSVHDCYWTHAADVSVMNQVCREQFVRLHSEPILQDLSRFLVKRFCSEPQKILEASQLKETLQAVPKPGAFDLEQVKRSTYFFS

Molecule	IC50
COCC(Oc1ccc2c(-c3ccccc3Cl)cc(=O)oc2c1)C(N)=O (single isomer, unassigned) [Example 95, 2-((4-(2-chlorophenyl)-2-oxo-2H-chromen-7-yl)oxy)-3-methoxypropanamide]	14000 nM
Cc1cc(O[C@H](C)C(=O)N(C)C)cc2oc(=O)cc(-c3ccc(F)cc3)c12 [Example 20, (R)-2-((4-(4-fluorophenyl)-5-methyl-2-oxo-2H-chromen-7-yl)oxy)-N,N-dimethylpropanamide]	2000 nM
COCC(C)Oc1ccc2c(-c3ccccc3C)cc(=O)oc2c1 (single isomer, unassigned) [Example 27, 7-((1-methoxypropan-2-yl)oxy)-4-(o-tolyl)-2H-chromen-2-one]	600 nM
CNC(=O)C(CO)Oc1ccc2c(-c3ccccc3C)cc(=O)oc2c1 (single isomer, unassigned) [Example 97, 3-hydroxy-N-methyl-2-[4-(o-tolyl)-2-oxo-chromen-7-yl]oxy-propanamide]	5000 nM
COCC(Oc1ccc2c(-c3ccccc3C)cc(=O)oc2c1)C(=O)N1CCC1 (single isomer, unassigned) [Example 90, 7-((1-(azetidin-1-yl)-3-methoxy-1-oxopropan-2-yl)oxy)-4-(o-tolyl)-2H-chromen-2-one]	10000 nM
CCCOc1ccc2c(-c3cscc3C)cc(=O)oc2c1 [Example 33, 4-(4-methylthiophen-3-yl)-7-propoxy-2H-chromen-2-one]	200 nM
Cc1cc(O)cc2oc(=O)cc(-c3ccccc3)c12 [Example 22, 7-hydroxy-5-methyl-4-phenyl-2H-chromen-2-one]	34000 nM
COC[C@H](Oc1ccc2c(-c3ccccc3C)cc(=O)oc2c1)C(N)=O [Example 67, (S)-3-methoxy-2-((2-oxo-4-(o-tolyl)-2H-chromen-7-yl)oxy)propenamide]	16000 nM
COC[C@@H](Oc1ccc2c(-c3ccccc3C)cc(=O)oc2c1)C(=O)O [Example 101, (R)-3-methoxy-2-((2-oxo-4-(o-tolyl)-2H-chromen-7-yl)oxy)propanoic acid]	400 nM
CC(=O)N1CCC(Oc2ccc3c(-c4ccc(F)cc4Cl)cc(=O)oc3c2)CC1 [Example 56, 7-((1-acetylpiperidin-4-yl)oxy)-4-(2-chloro-4-fluorophenyl)-2H-chromen-2-one]	8000 nM
Cc1ccccc1-c1cc(=O)oc2cc(Oc3ccccc3)ccc12 [Example 06, 7-phenoxy-4-(o-tolyl)-2H-chromen-2-one]	600 nM
COCC(C)Oc1ccc2c(-c3ccccc3C)cc(=O)oc2c1 (single isomer, unassigned) [Example 26, 7-((1-methoxypropan-2-yl)oxy)-4-(o-tolyl)-2H-chromen-2-one]	300 nM
Cc1cccc(C)c1-c1cc(=O)oc2cc(O[C@H](C)C(=O)N3CCS(=O)(=O)CC3)ccc12 [Example 112, (R)-4-(2,6-dimethylphenyl)-7-((1-(1,1-dioxidothiomorpholino)-1-oxopropan-2-yl)oxy)-2H-chromen-2-one]	65000 nM
C[C@@H](Oc1ccc2c(-c3ccc(F)cc3Cl)cc(=O)oc2c1)C(=O)N1CCS(=O)(=O)CC1 [Example 110, (R)-4-(2-chloro-4-fluorophenyl)-7-((1-(1,1-dioxidothiomorpholino)-1-oxopropan-2-yl)oxy)-2H-chromen-2-one]	500 nM
COc1ccccc1-c1cc(=O)oc2cc(O)ccc12 [Example 50, 7-hydroxy-4-(2-methoxyphenyl)-2H-chromen-2-one]	10000 nM
COC[C@@H](Oc1ccc2c(-c3ccccc3C)cc(=O)oc2c1)C(=O)N(C)C [Example 71, (R)-3-methoxy-N,N-dimethyl-2-((2-oxo-4-(o-tolyl)-2H-chromen-7-yl)oxy)propenamide]	100 nM
CNC(=O)C(CO)Oc1ccc2c(-c3ccccc3C)cc(=O)oc2c1 (single isomer, unassigned) [Example 98, 3-hydroxy-N-methyl-2-[4-(o-tolyl)-2-oxo-chromen-7-yl]oxy-propanamide]	> 100000 nM

Molecule	IC50
2-((4-(2-chloro-4-fluorophenyl)-2-oxo-2H-chromen-7-yl)oxy)-3-methoxypropanamide [Example 77]	2000 nM
Cc1ccccc1-c1cc(=O)oc2cc(O[C@H]3CCN(C)C3)ccc12 [Example 63, (S)-7-((1-methylpyrrolidin-3-yl)oxy)-4-(o-tolyl)-2H-chromen-2-one]	90000 nM
COc1ccc2c(-c3ccccc3C)cc(=O)oc2c1 [Example 04, 7-methoxy-4-(o-tolyl)-2H-chromen-2-one]	2000 nM
CCCOc1ccc2c(-c3c(C)noc3C)cc(=O)oc2c1 [Example 52, 4-(3,5-dimethylisoxazol-4-yl)-7-propoxy-2H-chromen-2-one]	17000 nM
Cc1ccccc1-c1cc(=O)oc2cc(O)cc(C)c12 [Example 37, 7-hydroxy-5-methyl-4-(o-tolyl)-2H-chromen-2-one]	2000 nM
2-((4-(2-chloro-4-fluorophenyl)-2-oxo-2H-chromen-7-yl)oxy)-3-methoxypropanamide [Example 76]	44000 nM
CCCOc1ccc2c(-c3ccc(O)cc3C)cc(=O)oc2c1 [Example 34, 4-(4-hydroxy-2-methylphenyl)-7-propoxy-2H-chromen-2-one]	4000 nM
COCC(Oc1ccc2c(-c3ccc(F)cc3Cl)cc(=O)oc2c1)C(=O)N(C)C (single isomer, unassigned) [Example 86, 2-((4-(2-chloro-4-fluorophenyl)-2-oxo-2H-chromen-7-yl)oxy)-3-methoxy-N,N-dimethylpropanamide]	> 100000 nM
CCCOc1ccc2c(-c3ccncc3C)cc(=O)oc2c1 [Example 54, 4-(3-methylpyridin-4-yl)-7-propoxy-2H-chromen-2-one]	3000 nM
Cc1ccccc1-c1cc(=O)oc2cc(OC(C)C#N)ccc12 (single isomer, unassigned) [Example 43, 2-((2-oxo-4-(o-tolyl)-2H-chromen-7-yl)oxy)propanenitrile]	1000 nM
CNC(=O)C(COC)Oc1ccc2c(-c3ccccc3Cl)cc(=O)oc2c1 (single isomer, unassigned) [Example 92, 2-((4-(2-chlorophenyl)-2-oxo-2H-chromen-7-yl)oxy)-3-methoxy-N-methylpropanamide]	400 nM
CCCOc1ccc2c(-c3ccccc3OC)cc(=O)oc2c1 [Example 35, 4-(2-methoxyphenyl)-7-propoxy-2H-chromen-2-one]	6000 nM
COCC(Oc1ccc2c(-c3ccccc3Cl)cc(=O)oc2c1)C(N)=O (single isomer, unassigned) [Example 96, 2-((4-(2-chlorophenyl)-2-oxo-2H-chromen-7-yl)oxy)-3-methoxypropanamide]	500 nM
CNC(=O)C(COC)Oc1ccc2c(-c3ccccc3Cl)cc(=O)oc2c1 (single isomer, unassigned) [Example 91, 2-((4-(2-chlorophenyl)-2-oxo-2H-chromen-7-yl)oxy)-3-methoxy-N-methylpropanamide]	14000 nM
CCC(COC)Oc1ccc2c(-c3ccccc3C)cc(=O)oc2c1 (single isomer, unassigned) [Example 45, 7-((1-methoxybutan-2-yl)oxy)-4-(o-tolyl)-2H-chromen-2-one]	100 nM
Cc1ccccc1-c1cc(=O)oc2cc(OC(C)C(F)(F)F)ccc12 (stereo not drawn) [Example 109, 4-(o-tolyl)-7-((1,1,1-trifluoropropan-2-yl)oxy)-2H-chromen-2-one]	300 nM
